Some test systems named below: HS 578T breast; TK-10 renal; OVCAR-3 ovarian; SK-MEL-5 melanoma; OVCAR-8 ovarian; MCF7 breast; A549 NSCLC; COLO 205 colon; NCI-H522 lung; SR leukemia.
Assay in all cases: NCI-60 cell line screen, 48 h

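The compound was tested at five concentrations on cells cultured in 96-well plates, with a 48-hour exposure period. At the GI50, growth is halved. TGI marks complete inhibition of growth.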 Bounds are passed on as bounds.

As to `O=C(NNc1nc(-c2ccccc2)cs1)Nc1ccccc1`, the TGI with HS 578T breast stood at 74.3 µM; in the experiment on TK-10 renal, 48.6 µM; in the experiment on OVCAR-3 ovarian, 50.2 µM; in the experiment with SK-MEL-5 melanoma it was 38.2 µM; in the experiment on OVCAR-8 ovarian, 46.8 µM; in the experiment on MCF7 breast, 62.8 µM. The TGI was 48 µM with A549 NSCLC and 56.4 µM with COLO 205 colon.
`CC1CN=C(c2ccc(CN3CCC(CCCC4CCN(Cc5ccc(C6=NCC(C)N6)cc5)CC4)CC3)cc2)N1` (configuration not stated): the TGI in the experiment with HS 578T breast is greater than 100 µM; in the experiment on TK-10 renal, greater than 100 µM; in the experiment with OVCAR-3 ovarian, greater than 100 µM; in the experiment with SK-MEL-5 melanoma, greater than 100 µM; in the experiment on OVCAR-8 ovarian, greater than 100 µM; in the experiment with MCF7 breast it was 50.3 µM. Also, the TGI was 70.3 µM in the experiment with NCI-H522 lung, greater than 100 µM in the experiment with A549 NSCLC and 33 µM in the experiment on COLO 205 colon.
For `C=C(Cl)CN1c2ccccc2C=Cc2ccccc21`, the TGI with HS 578T breast is greater than 100 µM; in the experiment on TK-10 renal it was greater than 100 µM; with OVCAR-3 ovarian it was 33.9 µM; in the experiment with SK-MEL-5 melanoma, 20.3 µM; in the experiment with OVCAR-8 ovarian, greater than 100 µM; in the experiment with MCF7 breast, 50.4 µM. Also, the values for the TGI in the experiment on NCI-H522 lung, in the experiment with A549 NSCLC and with COLO 205 colon were 82 µM, greater than 100 µM and 30.4 µM, respectively.
On to `Cc1ccc(C)c2c1n1c(=O)n(C)c(=O)n21`, for which the TGI in the experiment on HS 578T breast, in the experiment with TK-10 renal, in the experiment with OVCAR-3 ovarian, in the experiment on SK-MEL-5 melanoma, with OVCAR-8 ovarian and in the experiment with MCF7 breast was greater than 100 µM each time. In addition, the TGI in the experiment on NCI-H522 lung, with A549 NSCLC and with COLO 205 colon was greater than 100 µM in each case.
Turning to `CNC(=O)C1OC(n2cnc3c(NCc4cccc(I)c4)nc(Cl)nc32)C(O)C1O` (configuration not stated), the TGI in the experiment on HS 578T breast stood at 18.7 µM; in the experiment with TK-10 renal it was 29.8 µM; in the experiment on OVCAR-3 ovarian, 25.7 µM; with SK-MEL-5 melanoma, 42.2 µM; in the experiment on OVCAR-8 ovarian it was 26.7 µM; in the experiment with MCF7 breast, 25.4 µM. For the same compound, the TGI with SR leukemia is 59.6 µM; in the experiment on COLO 205 colon it was 82.6 µM.
Regarding `N#Cc1c(N2CCCC2)nsc1Nc1ccccc1`, the TGI with HS 578T breast, in the experiment on TK-10 renal, in the experiment on SK-MEL-5 melanoma, in the experiment on OVCAR-8 ovarian, in the experiment on A549 NSCLC and in the experiment on SR leukemia was greater than 100 µM throughout. Besides, the TGI in the experiment with COLO 205 colon is greater than 100 µM.
Turning to `c1ccc(OCc2nnc(CCCCCCCCc3nnc(COc4ccccc4)o3)o2)cc1`, the TGI in the experiment with TK-10 renal, with OVCAR-3 ovarian, in the experiment on SK-MEL-5 melanoma, with OVCAR-8 ovarian, in the experiment on MCF7 breast and in the experiment on NCI-H522 lung was greater than 100 µM each time. The TGI in the experiment with A549 NSCLC and with COLO 205 colon was greater than 100 µM each time.
As for `NS(=O)(=O)c1ccc(NCc2nc3ccccc3[nH]2)cc1`, the TGI in the experiment on HS 578T breast, in the experiment with TK-10 renal, in the experiment on OVCAR-3 ovarian, with SK-MEL-5 melanoma, with OVCAR-8 ovarian and in the experiment on MCF7 breast was greater than 100 µM each time. Besides, the TGI with NCI-H522 lung, with A549 NSCLC and in the experiment with COLO 205 colon was greater than 100 µM in each case.
Regarding `COc1ccc2c(c1)[nH]c1c3ccc(OC)cc3oc(=O)c21`, the TGI with HS 578T breast, with TK-10 renal, in the experiment with OVCAR-3 ovarian, with SK-MEL-5 melanoma, in the experiment on OVCAR-8 ovarian and in the experiment on MCF7 breast was greater than 100 µM throughout. Moreover, the TGI in the experiment on A549 NSCLC and with COLO 205 colon was greater than 100 µM in each case.
On to `Cc1ccc2c(=O)cc(-c3cccc(F)c3)[nH]c2n1`, for which the TGI was 0.0591 µM with HS 578T breast; greater than 100 µM with TK-10 renal; 0.0415 µM in the experiment on OVCAR-3 ovarian; 2.16 µM in the experiment on SK-MEL-5 melanoma; 1.87 µM in the experiment on OVCAR-8 ovarian; 0.0504 µM in the experiment on NCI-H522 lung. In addition, the TGI in the experiment on A549 NSCLC was greater than 100 µM; with COLO 205 colon it was 0.0567 µM.
Consider `NNS(=O)(=O)c1ccc(/C=C2\NC(=O)NC2=O)cc1`, for which the TGI in the experiment on HS 578T breast, with TK-10 renal, in the experiment with OVCAR-3 ovarian, in the experiment with SK-MEL-5 melanoma, in the experiment with OVCAR-8 ovarian and in the experiment on MCF7 breast was greater than 100 µM throughout. The TGI in the experiment on A549 NSCLC and with COLO 205 colon was greater than 100 µM in each case.
As to `CCCCCCCCCCOc1ccc(N=Nc2nnc(-c3ccc(OCCCCC)cc3)s2)cc1`, the TGI in the experiment on HS 578T breast, with TK-10 renal, in the experiment on OVCAR-3 ovarian, in the experiment on SK-MEL-5 melanoma, in the experiment on OVCAR-8 ovarian and with MCF7 breast was greater than 100 µM each time. For the same compound, the TGI in the experiment on NCI-H522 lung, in the experiment on A549 NSCLC and in the experiment with COLO 205 colon was greater than 100 µM throughout.
Turning to `N=C(N)c1ccc(-c2ccc(-c3ccc(Cl)cc3Cl)s2)nc1`, the GI50 in the experiment on HS 578T breast was 2.15 µM; in the experiment with OVCAR-3 ovarian, 1.83 µM; with SK-MEL-5 melanoma, 1.77 µM; with OVCAR-8 ovarian, 2.51 µM; in the experiment with NCI-H522 lung, 2.19 µM. For the same compound, the TGI in the experiment with HS 578T breast stood at 4.88 µM; in the experiment on OVCAR-3 ovarian it was 3.35 µM; in the experiment with SK-MEL-5 melanoma, 3.24 µM; in the experiment on OVCAR-8 ovarian, 6.41 µM; with NCI-H522 lung, 4.88 µM.
With `Clc1ncnc2c1nc(C#Cc1ccccc1)n2C1CCCCO1` (configuration not stated), the TGI was found to be 42.6 µM in the experiment on HS 578T breast; 5.11 µM in the experiment on TK-10 renal; 2.92 µM in the experiment on OVCAR-3 ovarian; 5.06 µM in the experiment with SK-MEL-5 melanoma; 12.4 µM in the experiment with OVCAR-8 ovarian; 3.22 µM in the experiment with MCF7 breast. In addition, the results for the TGI in the experiment with NCI-H522 lung, with A549 NSCLC and in the experiment on COLO 205 colon were 3.65 µM, 4.04 µM and 2.97 µM, respectively.
Regarding `CCOC(=O)CN1C(=O)C(=O)N(c2ccc(OC)c3ccccc23)C1=O`, the TGI in the experiment on TK-10 renal, in the experiment on OVCAR-3 ovarian, in the experiment with SK-MEL-5 melanoma, with OVCAR-8 ovarian, with MCF7 breast and in the experiment with NCI-H522 lung was greater than 100 µM in each case. In addition, the TGI in the experiment on A549 NSCLC, in the experiment with SR leukemia and with COLO 205 colon was greater than 100 µM each time.
As for `Cc1ccc(C(=O)N/N=C(\N=Nc2ccccc2C(=O)O)c2ccc(N(C)C)cc2)cc1`, the TGI with HS 578T breast was greater than 100 µM; with TK-10 renal, greater than 100 µM; in the experiment on OVCAR-3 ovarian, 99.3 µM; with SK-MEL-5 melanoma it was greater than 100 µM; with OVCAR-8 ovarian, greater than 100 µM; in the experiment on MCF7 breast, greater than 100 µM. Further, the TGI with NCI-H522 lung, in the experiment with A549 NSCLC and in the experiment with COLO 205 colon was greater than 100 µM in each case.
Regarding `COc1cc(-c2nc(SC)nc3c2CCc2ccccc2-3)cc(OC)c1OC`, the TGI in the experiment with HS 578T breast, with OVCAR-3 ovarian, in the experiment with SK-MEL-5 melanoma, in the experiment with OVCAR-8 ovarian, in the experiment on MCF7 breast and in the experiment with A549 NSCLC was greater than 100 µM throughout. The compound further registered a TGI in the experiment on COLO 205 colon greater than 100 µM.
As to `COc1ccc(/C=C(/c2ccc(OC)cc2)c2c(Cl)cc(Cl)c(/C(=C\c3ccc(OC)cc3)c3ccc(OC)cc3)c2N=Nc2ccccc2)cc1`, the TGI in the experiment on HS 578T breast, with TK-10 renal, with OVCAR-3 ovarian, in the experiment with SK-MEL-5 melanoma, in the experiment on OVCAR-8 ovarian and in the experiment on MCF7 breast was greater than 100 µM each time. The TGI with NCI-H522 lung, in the experiment on A549 NSCLC and in the experiment with COLO 205 colon was greater than 100 µM in each case.
In the case of `CCOC(=O)Cc1cc(=O)[nH]c(-n2[nH]c(C)c(CCO)c2=O)n1`, the TGI in the experiment with HS 578T breast, in the experiment with TK-10 renal, with OVCAR-3 ovarian, in the experiment with SK-MEL-5 melanoma, in the experiment on OVCAR-8 ovarian and in the experiment on MCF7 breast was greater than 100 µM each time. The TGI in the experiment with NCI-H522 lung, with A549 NSCLC and in the experiment with COLO 205 colon was greater than 100 µM throughout.
`Cn1c2ccccc2c2c3c(c4c5ccccc5n(C)c4c21)C(=O)N(c1ccccc1)C3=O`: the TGI in the experiment on TK-10 renal, with OVCAR-3 ovarian, in the experiment on SK-MEL-5 melanoma, with OVCAR-8 ovarian, with MCF7 breast and in the experiment with NCI-H522 lung was greater than 100 µM in each case. For the same compound, the TGI in the experiment with A549 NSCLC, in the experiment with SR leukemia and with COLO 205 colon was greater than 100 µM throughout.
As for `Cn1c(-c2c(C3=CC(=O)N(c4ccccc4)C3=O)c3ccccc3n2C)cc2ccccc21`, the TGI in the experiment on TK-10 renal, in the experiment on OVCAR-3 ovarian, with SK-MEL-5 melanoma, with OVCAR-8 ovarian, in the experiment on MCF7 breast and in the experiment with NCI-H522 lung was greater than 100 µM in each case. In addition, the TGI in the experiment on A549 NSCLC, in the experiment with SR leukemia and in the experiment with COLO 205 colon was greater than 100 µM in each case.
Regarding `COC(=N)CCCl`, the TGI in the experiment with TK-10 renal, in the experiment with OVCAR-3 ovarian, in the experiment on SK-MEL-5 melanoma, with OVCAR-8 ovarian, with MCF7 breast and in the experiment on NCI-H522 lung was greater than 100 µM in each case. Besides, the TGI with A549 NSCLC, in the experiment on SR leukemia and in the experiment on COLO 205 colon was greater than 100 µM each time.
`CCN(CCC#N)C(=O)Nc1ccccc1`: the TGI in the experiment with TK-10 renal, in the experiment on OVCAR-3 ovarian, in the experiment with SK-MEL-5 melanoma, with OVCAR-8 ovarian, in the experiment on MCF7 breast and in the experiment on NCI-H522 lung was greater than 100 µM each time. The TGI in the experiment with A549 NSCLC and with COLO 205 colon was greater than 100 µM each time.

These data come from PubChem BioAssay (NCI).
